Data from patent US11957766B2, “HNQO1-activatable fluorescent probe for imaging cancer cells in-vitro and in-vivo” (Texas Tech University System, priority 2019, dated 2024).

What was measured:
[1] = tested on: Lewis Lung carcinoma (LLC) tumors; test: In vivo and ex vivo NIRF imaging with NIR-ASM in Lewis Lung carcinoma (LLC) lung cancer model; design: species or system C57BL/6 mice
From the text: Whether still in-situ or already disseminated, early diagnosis of cancer is an essential requirement for successful therapy. Although NQO1 is expressed at higher levels in cancers compared to a diminished or absent status in normal tissues, the diagnostic potential of existing NQO1 specific fluorescent probes has not been realized. Therefore, the inventors evaluated the non-invasive diagnostic ability of NIR-ASM in a metastatic syngeneic lung cancer model to mimic the clinical situation. Lung cancer was established in C57BL/6 mice by injecting Lewis Lung carcinoma (LLC) cells (0.5×10^6 per animal) intravenously. This cell line is highly tumorigenic and is primarily used to model metastasis as well as evaluate the efficacy of chemotherapeutic agents in vivo.^44 The LLC cells have ˜80 units of NQO1 activity compared to <10 units in healthy mouse lungs.^45 Two weeks after the implantation, the animals received NIR-ASM (5 mg/kg) intravenously. […] There are several routes for drug elimination from the body and the majority of drugs are eliminated by pathways that involve the kidneys.
In vivo bioimaging. The animal study protocol was approved by the Institutional Animal Use and Care Committee (IACUC), Texas Tech University Health Sciences Center, Protocol number: 07050. All experimental protocols used in this study were approved by IACUC, Texas Tech University Health Sciences Center and all the methods were carried out according to the committee guidelines. Female athymic nude mice (nu/nu, 4-6 weeks) were purchased from Charles River Laboratories (Wilmington, MA, USA). BALB/c57 mice were provided by Dr. Constantinos Mikelis of our University. To establish A549 or MDA-MB-231 xenografts, a total of 5×10^6 cells (in 0.1 ml of serum-free media and Matrigel (1:1)) were subcutaneously injected into the flanks of the mice. For developing orthotopic lung cancer models, LLC cells (0.5×10^6) were intravenously injected into the tail veins of female BALB/c57 mice. All animals were monitored for activity, physical condition, body weight, and tumor growth. To detect endogenous NQO1 activity, NIR-ASM was dissolved in a vehicle of composition, PEG-300:EtOH:saline (60:30:10, v/v/v) and given intravenously through tail vein injection. The animals were imaged at different time intervals with excitation/emission filters of 500/640 nm using the IVIS Lumina XR Imaging system. At the end of the experiments, the xenografted tumors, hearts, lungs, livers, kidneys, spleens, and brains were removed and imaged to confirm the signal locations. Fluorescence represented in log values of radiance is photons per second per square centimeter per steradian.

A549 tumor = test: In vivo real-time imaging of NQO1 in A549 xenografts with NIR-ASM; design: species or system nude mice
Experimental: In vivo real-time imaging of NQO1 in xenografts using NIR-ASM. In vivo real-time imaging offers a powerful tool for accurately diagnosing disease and suspicious lesions with valuable spatiotemporal precision. […] Tumor xenografts were established by implanting exponentially growing lung cancer cells (A549) subcutaneously into nude mice. When tumor growth reached the log phase, NIR-ASM (5 mg/kg in PEG:H2O:EtOH (6:3:1)) was given intravenously and subjected to whole-body fluorescence imaging using an In Vivo Imager (IVIS). […] No signal was apparent in other organs of the animal. To confirm the tumor-selective targeting ability of NIR-ASM, the host organs and tumor from the mice administered with NIR-ASM were harvested and their fluorescence was analyzed ex vivo using the same IVIS. […] Furthermore, the lysates from the tumor and various organs were electrophoresed and western blotted using the NQO1 antibody. NQO1 protein at detectable levels was seen only in the tumor lysate and not in other tissues, thus, reinforcing the specificity of in-vivo imaging (FIG. 14C).
In vivo bioimaging. […] All animals were monitored for activity, physical condition, body weight, and tumor growth. […] Fluorescence represented in log values of radiance is photons per second per square centimeter per steradian.

IMR90, HUVEC cells = test: Fluorescence microscopy of NIR-ASM in NQO1 non-expressing normal cells; type: cell-based, human; settings: 10 μM, 60 min
Experimental: (§1) Detection of NQO1 in live cells. Inspired by the excellent biocompatibility, the inventors investigated its performance in both NQO1 expressing cancer cells (A549, H460) and NQO1 non-expressing normal cells (IMR90, HUVEC). All cells were incubated with NIR-ASM (10 μM) for 60 min, washed with PBS and were imaged under a confocal microscope after counterstaining the nuclei with Hoechst 33342 (FIG. 12A). […] The higher expression of NQO1 protein in A549 and H460 cells and its absence in normal cells, IMR90 and HUVEC as found with western blot analysis correlated with the probe reactivity in cells (FIG. 12B). […] Cell sorting using flow cytometry is a well-established technology in clinical diagnostics and biomedical research. To assess the applicability of the NIR-ASM to rapidly detect and quantify in both cancer and normal cells based on NQO1 expression, the probe was incubated with cell suspensions for 60 min, and about 1×10^4 cells were analyzed on a flow cytometer.
Fluorescence imaging. Both cancer and normal cells were seeded into 6-well plates and cultured overnight in respective media at 37° C. Cells were treated with 10 μM NIR-ASM and incubated at 37° C. for 60 min. They were then treated with nuclear stain Hoechst 33342 for 5 min. Finally, the medium was replaced with PBS and the live cells were imaged using a multiphoton confocal fluorescence microscope (λex/em=488/644 nm). […]

IMR90 and HUVECs = test: Flow cytometry of NIR-ASM in NQO1-negative normal cell lines; type: cell-based, human
Experimental: as §1
Flow cytometry analysis. The endogenous NQO1 activity of cancer cells and normal cells was determined by flow cytometry after NIR-ASM exposure. Cells were incubated with 10 μM of NIR-ASM for 60 min, harvested by trypsinization and washed with PBS. For inhibitor study, cells were pretreated with NQO1 inhibitor ES936 (100 nM) for 6 h before adding the NIR-ASM. About 1×10^4 cells were analyzed by flow cytometry (λex=488 nm).

CC1=C(C)C(=O)C(C(C)(C)CC(=O)Nc2ccc(/C=C/C3=CC(=C(C#N)C#N)CC(C)(C)C3)cc2)=C(C)C1=O [NIR-ASM, (E)-N-(4-(2-(3-(dicyanomethylene)-5,5-dimethylcyclohex-1-en-1-yl)vinyl)phenyl)-3-methyl-3-(2,4,5-trimethyl-3,6-dioxocyclohexa-1,4-dien-1-yl)butanamide]
time of maximum fluorescence intensity ([1]; 5 mg/kg intravenous): 30 min | NIRF signal intensity of tumor-bearing lungs compared to other selected organs ([1]; 5 mg/kg intravenously, two weeks after implantation): more than 100 fold | route of elimination ([1]; fluorescence observed in kidneys during ex vivo NIRF imaging): renal excretion might play an important role | fluorescence in the lungs of healthy mice ([1]; non-tumor-bearing mouse, intravenous NIR-ASM): no fluorescence observed | time at which tumor fluorescence signal reached the plateau (A549 tumor; 5 mg/kg intravenously): 30 min | ex vivo fluorescence in tumor and organs (A549 tumor; organs harvested after NIR-ASM): observed only in the tumor and not in any other major organs | fluorescence signal in normal cells (IMR90, HUVEC cells): did not show any fluorescence | flow cytometry fluorescence signal, negative normal cells (IMR90 and HUVECs; 60 min, about 1×10^4 cells): minimal fluorescence | intracellular stability (IMR90 and HUVECs; sustained low fluorescence in normal cells): intracellular stability of NIR-ASM without any non-specific activation
